This is an account of results in patent publication US20210332436A1, “STEM CELL-BASED MULTIPLEX METHODS AND COMPOSITIONS” (MEMORIAL SLOAN-KETTERING CANCER CENTER, priority 2018, published 2021).

One experiment relates to Day 20 PFC cultures. The experiment can be described thus: Single genotype analysis of WNT responsiveness during PFC development (proliferation Ki67/DAPI and cell-cycle re-entry Ki67+EdU+/Ki67+). It is filed as cell-based, human. As for the experimental part:
FIGS. 15a-15d provide additional data related to WNT assays. FIG. 15a provides PFC WNT response of autism lines relative to a negative control (UMOD). WNT response is measured by relative change in stem cell enrichment versus an untreated control. Red bars indicate significant increases or decreases in WNT response (FDR<0.05). FIG. 15b provides efficiency of neural crest specification relative to a negative control (UMOD). Red bars indicate significant increases or decreases in WNT response (FDR<0.05). FIG. 15c provides schematic of quantification for zebrafish jaw development at 7 dpf. A straight line is drawn from the top of the eyes, and second line is then drawn to the middle of the upper jaw. The angle between the two lines (0) is measured using ImageJ. A cut-off value of −1 s.d. (red line) from the mean (green line) of the no injection group was used to define hypomorphic animals. Graphs show raw data that underlie the hypomorph quantification in FIG. 3e. p<0.0001 for group differences calculated by non-parametric Kruskall-Wallis test, followed by dunn's test for multiple comparisons CTNNB1 p=0.0007, ANKRD11 p=0.0013, CUL3 p=0.0073, KMT2C p=0.0007. dpf, Days post fertilization. FIG. 15d provides a single genotype analysis of WNT responsiveness during PFC development. […] Day 20 PFC cultures were treated with CHIR99021 (0.6 μM) for 2 days or left untreated. At day 22, cultures were pulsed with EdU using the EdU Click-iT system according to manufacturer protocol (ThermoFisher Scientific C10640). Briefly, cells were treated with EdU for 1 hour, dissociated with Accutase for 30 minutes at 37 C, and passaged onto laminin/fibronectin coated plates at a density of 200,000-400,000 cells/cm2 in the presence of ROCK inhibitor (Y-27632, 10 μM, Tocris 1254). Cell were fixed 18 hours later and fixed for immunocytochemistry. ImageJ was used for cell counting. Images were thresholded to define individual cells (particles) and cells were counted using the analyze particle function.

Experiment [1] concerns day 35 MIX30 PFC cultures. The experiment can be described thus: Multiplex PFC WNT response assay (CHIR99021 treatment of pooled PFC cultures, stem cell proliferation/enrichment readout). The class given is cell-based, human. The conditions noted are these: 3 μM for 10 days, vs untreated. The text has this: In addition to probing developmental phenotypes related to cell fate specification and proliferation, the present multiplex platform also allows us to evaluate the cell-type specific activity of key molecular pathways. The WNT/βcatenin pathway is a critical regulator of stem cell proliferation and neurogenesis during cortical development (Hirabayashi et al., Development 131, 2791-2801 (2004); Munji et al., J Neurosci 31, 1676-1687 (2011); Chenn, Organogenesis 4, 76-80 (2008)) and is a central node among a network of autism-related genes (Packer, Mol Psychiatry, (2016); Krumm et al., Trends Neurosci 37, 95-105 (2014); Gilman et al., Neuron 70, 898-907 (2011)). It was therefore tested autism lines for the ability to respond to WNT/βcatenin signaling by treating day 35 MIX30 PFC cultures with the GSK3α/β inhibitor CHIR99021 (3 μM) for 10 days, using stem cell proliferation as an initial readout of WNT activity (Kim et al., Nat Neurosci 12, 1390-1397 (2009)) (FIG. 3a). […] Lineage specificity of the WNT-response phenotype was assessed by differentiating the MIX30 library to CD49d^+ cranial neural crest (CNC) precursors ([…] et al., Nature 531, 105-109 (2016)), whose specification is dependent on WNT/β catenin activity (Dorsky et al., Nature 396, 370-373 (1998)) (FIG. 3c, FIGS. 10d-10f). […] DNA was quantified using a fluorometer (Qubit 3.0, Thermo Q33216). […]

Where [2] appears, read: 5/5 class 1 lines compared to MEL1, 0.6 μM for 2 days.

For `Cc1c[nH]c(-c2cnc(NCCNc3ccc(C#N)cn3)nc2-c2ccc(Cl)cc2Cl)n1` [CHIR99021], in the experiment with Day 20 PFC cultures (setting [2]), the “proliferation response to CHIR (CHIR/Baseline, Ki67/DAPI)” value is given as “blunted proliferation response” and the “rates of cell-cycle re-entry (Ki67+EdU+/Ki67+) in response to CHIR” value is reported as “blunted response”. For the same compound, the “rates of cell-cycle re-entry (Ki67+EdU+/Ki67+) in response to CHIR” value in the experiment on Day 20 PFC cultures (control lines, 0.6 μM for 2 days) was “increased rates of cell-cycle re-entry”. The “stem cell proliferation (readout of WNT activity)” value in experiment [1] is reported as “enhanced stem cell proliferation”.
